Data set [1] deals with cancer cells. To be noted: expression or introduction of CT20p in cancer cells; cited from earlier work.
In the next data set the test system is PSMA(+) PC3 tumors. To be noted: two week experiment (FIG. 22D).
For data set [2], the system named is cancer cells. Put plainly: CT20p activities in cancer cells (timeline). Format: cell-based. The protocol: FIGS. 18A-18J illustrate a timeline of CT20p activities in cancer cells. […] Gates are N, necrotic; V, viable; A, apoptotic. Percentages are V (black) and N+A (red). FIG. 18E is a graph showing that by 6 hours, cells detach from the substrate (fibronectin). Such cell detachment was measured using a crystal violet adhesion assay.
(§1) Recently, a mitotoxic peptide that kills cancer cells was discovered. […] Cell death (anoikis), indicated by membrane asymmetry, was detectable in cancer cells by 48 hours (FIG. 18J). […] These findings indicate that CT20p impairs cancer cell invasiveness through its actions on mitochondria and the cytoskeleton, which causes detachment-induced cell death.

A further data set has as its system normal cells. Put plainly: CT20p in normal cells / control epithelial cell line. It is filed as cell-based. The protocol:
as §1

The subject of data set [3] is PSMA-expressing PCa cells. Put plainly: Effects of CT20p upon cell adhesion and anoikis. It is filed as cell-based. The protocol: An essential activity that promotes the invasiveness of metastatic cells is rearrangement of the cytoskeleton, which can be linked to integrin signaling. […] At selected time points, PCa cells (Table 1) as well as control cells were treated with Mitotracker Red to visualize mitochondria and then were fixed on coverslips for staining with Alexa Fluor™ 647 phalloidin, a high-affinity F-actin probe, or Deoxyribonuclease I, Alexa Fluor™ 488-conjugate for G-actin for imaging by confocal microscopy (Zeiss 710). To examine how integrin signaling was impaired by CT20p, the surface expression of integrins detected with fluorescence-conjugated antibodies (β1, CD29 and αVβ3, CD51/61) by flow cytometry, was examined. Levels of additional integrins (αV or α5) were also evaluated by immunoblotting cell lysates. To determine whether cell detachment and the reduction in integrin levels could activate anoikis, the CytoSelect® 96-well Anoikis Assay Kit was used and standard assays of cell migration and invasion were performed. Additionally, to test the effects of CT20p under conditions of directed migration, the cells described above were treated with conditioned media from 3T3 cells, which contains chemotactic factors.

For the next data set, the system named is cells. To be noted: cited from earlier work.
The test system of another data set is macrophages (RAW cells). Put plainly: Cell death of non-transformed cells (Sytox analysis). Format: cell-based. The procedure: FIGS. 21A-21J show dose- (FIGS. 21A, 21C) and time- (FIGS. 21D, 21F) dependent cytotoxicity assay of PCa cells treated with Folate.HBPE(Dil)-NPs. PCa Cells: LNCap (FIGS. 21A, 21D), PSMA(+) PC3 (FIGS. 21B, 21E) and PC3 (FIGS. 21C, 21F). […] V, viable; N, necrotic, A, apoptotic.
To study any effect that folate-HBPE (CT20p)-NPs may have on non-transformed cells, macrophages (RAW cells) were incubated with the folate-HBPE(CT20p)-NPs and cell death was assessed.

For data set [4], the system named is PCa primary tumors and metastatic lesions.
Method: Results were compared with those obtained with free doxorubicin or folate-ss-doxorubicin. Again, the lead HBPE-NP preparations from Experiment 2 were used. Male SCID mice were used that are either intact or castrated and treated with testosterone (SC) or DHT pellet. SCID mice were injected SC with luciferase expressing LNCaP cells and, upon tumor growth, D-luciferin was injected prior to imaging (IVIS, Perkin Elmer). In all experiments, NPs without targeting ligand or without CT20p were used as controls. Mice were injected once every week, for 3-4 weeks, with control DFO-HBPE-NPs or PSMA-targeted DFO-HBPE(CT20p)-NPs. Tumor growth was monitored by measuring the tumor size using a caliper or by ultrasound as well as by bio-luminescence as described above. In addition, blood was collected for weekly PSA measurements (with a commercially available ELISA), using the value prior to therapy as a baseline. The tumors were followed for 6 weeks or until reaching 1.5 cm in size (whichever came first). At experimental endpoints, remaining tumor tissue, as well as liver, spleen, kidney, lungs and brain, were collected and examined by immunohistochemistry (using J591 to identify PSMA) and also qRT-PCR and quantitative Western Blot for PSMA levels in the tumor to correlates with response to the targeted therapy. […]
Data set [5] deals with PSMA positive LNCaP cells. To be noted: LNCaP cell viability.
From the text: The amount of encapsulated abiraterone was estimated following a reported protocol and defined as encapsulation efficiency.
[6] abbreviates: by 24 hours post-CT20p treatment.

The text below walks through data of US10973925B2, “Methods and compositions for theranostic nanoparticles” (University of Central Florida Research Foundation, Inc., priority 2015, dated 2021).

“Also recorded” adds a separate entry of the source. Residues, ends and D or L forms follow the SMILES beside them.

Method for PSMA(+) PC3 tumors: FIG. 22A depicts an image of mice that were injected subcutaneously (SC) with PSMA(+) (right flank) or PSMA(−) (left flank) PCa tumor cells. Upon tumor detection (˜2 weeks), the mice were injected intravenously (IV) with PEG-(FOL)-HBPE-NPs (2 mg/kg/dose) containing a near IR dye (FIG. 22A) or CT20p (FIG. 22B). Mice were imaged after 24 hours (FIG. 22A) or sacrificed after 10 days (FIG. 22B). […] FIG. 22D is a graph that summarizes a two week experiment in which mice (n=5) bearing PSMA+ tumors (SC) were IV injected once per week with FOL-HBPE-NPs (2 mg/kg/dose) that were empty or had CT20p and were compared to COOH-NPs (untargeted) with CT20p or FOL-targeted doxorubicin (DOX). *p<0.05. The mice were euthanized before the tumors ulcerated.

`CC[C@H](C)[C@H](NC(=O)[C@@H](NC(=O)[C@H](CC(C)C)NC(=O)[C@H](CO)NC(=O)[C@H](C)NC(=O)[C@@H](NC(=O)[C@H](CC(C)C)NC(=O)[C@@H](NC(=O)CNC(=O)[C@H](C)NC(=O)[C@@H](NC(=O)[C@H](Cc1ccccc1)NC(=O)[C@@H](NC(=O)[C@@H](NC(=O)[C@@H](NC(C)=O)C(C)C)[C@@H](C)O)[C@@H](C)CC)C(C)C)C(C)C)[C@@H](C)O)[C@@H](C)O)C(=O)N[C@@H](Cc1c[nH]c2ccccc12)C(=O)N[C@@H](CCCCN)C(=O)N[C@@H](CCCCN)C(=O)N[C@@H](CCSC)C(=O)NCC(N)=O` [CT20p] (Ac-VTIFVAGVLTASLTIWKKMG-NH2): in the data set on cancer cells [1], the “block of cell death by Bcl-2 overexpression, Bax deficiency or caspase inhibition” value was “minimally blocked it”. Moreover, in the data set on PSMA(+) PC3 tumors, the “efficacy in PSMA+ tumors” value is listed as “more effective than drugs like Doxoyrubucin”. For the same compound, the “concentration range in which the peptide works” value in the data set on cancer cells [2] is “nanomolar range”. Besides, in the data set with cancer cells [2] (setting [6]), the ROS production entry is “increased ROS production”, the autophagy result is “induction of autophagy” and the caspases entry was “activation of caspases”. The mitochondrial membrane effect result in the data set on cancer cells [2] (cancer cells) was “hyperpolarization of the mitochondrial membrane and fusion-like aggregation; also recorded: mitochondrial membranes hyperpolarize and fuse”. Further, the “β1 integrin surface level” value in the data set on cancer cells [2] (prior to cell detachment) was “decreased surface expression of β1 integrin; also recorded: membrane levels of β1 integrin decreased”. The “co-localization of peptide with mitochondria” value with cancer cells [2] (˜3.4 nM CT20p in NPs, cancer cells) is given as “co-localization of the peptide (red) with mitochondria (green) was detected”. Also, in the data set on normal cells (control epithelial cell line), the “mitochondrial localization, autophagosome formation or cell death” value is “not observed”. The cell death entry in the data set with normal cells (normal cells (FIG. 19C)) is given as “minimal cell death was detected”. Besides, the “F-actin and integrin signaling” value in data set [3] is “loss of F-actin and reduced integrin signaling”. Moreover, the uptake by cells result with cells is on record as “not taken up by cells”.
With `COc1cccc2c1C(=O)c1c(O)c3c(c(O)c1C2=O)C[C@@](O)(C(=O)CO)C[C@@H]3O[C@H]1C[C@H](N)[C@H](O)[C@H](C)O1` [Doxorubicin], the toxicity to macrophages entry in the data set with macrophages (RAW cells) is given as “death of macrophages was observed”. Further, in [4] (also castration and hormone signaling conditions), the tumor regression entry is on record as “Tumor regression also occurs”. In data set [4] (mouse, in vivo), the off-target toxicity result is “off-target toxicity was observed”.
Regarding `C[C@]12CC[C@H](O)CC1=CC[C@@H]1[C@@H]2CC[C@]2(C)C(c3cccnc3)=CC[C@@H]12` [abiraterone], half-maximal inhibition in data set [5] (IC50) required 2550 nM. This counts as single-digit micromolar.
